# How the values were obtained:
# [1] = system: Sauromatum guttatum appendix; assay: Modulation of heat generated by salicylic acid (SA) in appendix sections; settings: appendix sections in aqueous SA with or without peptide
# Experimental: (§1) In one example, using Sauromatum guttatum as the experimental module, on the day of inflorescence-opening, the Sauromatum appendix (a 20-40 cm-long, slender organ) becomes warm, reaching a 32° C. temperature (Skubatz et al., 1991, Plant Physiol. 95:1084-1088). The heat generated by the appendix is generated by the mitochondria. This mitochondrial activity can be triggered by the addition of phenolic compounds, including but not limited to, salicylic acid, aspirin, and 2,6-dihydroxybenzoic acid. Test agents can be applied to the plant and the plant's temperature may be monitored in vivo.
# FIG. 5 illustrates modulation of heat generated by salicylic acid (SA) in the presence of human opioid peptides (β-Endorphin, SEQ ID NO: 19 and Nueuropeptide AF, SEQ ID NO: 44) and, the Alzheimer's peptide, Aβ 1-42, SEQ ID NO: 49, and, a plant virulent bacterial pathogen (Pst DC3000). One day before heat-production, sections of the appendix were placed in different aqueous solutions containing salicylic acid (SA) with or without a peptide or with the bacterial plant pathogen, Pseudomonas syringae pv. Tomato, DC3000. Sections from the appendix were placed in distilled water that was not generated any heat is the control (water). Temperature was recorded with thermocouples attached to the sections every 5 min.
# [2] = system: Sauromatum guttatum appendix; assay: Modulation of heat generated by aspirin (ASA) in appendix sections; settings: appendix sections in aqueous ASA with or without peptide
# Experimental: as §1
# One day before heat-production, sections of the appendix were placed in different aqueous solutions containing ASA with or without an opioid peptide. [Leu]-Enkephalin, SEQ ID NO: 15; Human β-Endorphin; SEQ ID NO: 19; Dynorphin A, SEQ ID NO: 21; Endomorphin 2, SEQ ID NO: 24; Neuropeptide AF, SEQ ID NO: 44; β-human-Casomorphin, SEQ ID NO: 47; Alzheimer's peptide, SEQ ID NO: 48. […] Temperature was recorded with thermocouples attached to the section every 5 min.
# chronic pain = assay: Topical administration to an adult subject with chronic pain, scaled score 1 to 10; assay type: in vivo, human
# Experimental: An adult subject suffering from chronic pain as a result from of multiple fractures to both tibia and fibula in both legs and severe traumatic soft tissue damage was topically administered a composition containing a polypeptide of SEQ ID NO: 1 at regions experiencing pain (mostly knees and ankles). The pharmaceutical formulation administered comprised of 5 μM of SEQ ID NO: 1 in 0.01% Silwet L-77. Relief was noticed within 15 min. after administration of a single dose of about 5 μg/10 cm2 of SEQ ID NO: 1. […] A scaled score of 1 to 10 was used to evaluate treatment efficacy where a score of 10 represented a patient with sever pain discomfort and complete inability to walk. A scaled score of 1 represented a patient experiencing no pain and able to freely walk or move the legs. Prior to treatment, the patient scored an 8-9 representing chronic pain and difficulties in walking long distance. After the treatment, the patient scored a 2-3 representing a significant decrease in pain. Treatment efficacy lasted for about 10 days.
# [3] = system: Arabidopsis thaliana plants; assay: Flowering of treated plants; assay type: in vivo; settings: 10 μm in 0.01% Silwet L-77
# [4] = system: post-operative pain in rats; assay: Von Frey testing for mechanical allodynia, post-operative pain (Brennan model), first study; assay type: in vivo, rat
# Excerpt: A total of forty (40) male Sprague Dawley rats (Harlan Sprague Dawley Inc., Indianapolis, Ind., USA) were used in the study. The rats are specific pathogen free and approximately 250 grams upon arrival. The rats were housed in the vivarium in clear polycarbonate plastic cages (48×27×20 cm); 2 rats per cage until a few days prior to surgery at which point they were singularly housed for the remainder of the study procedures. The bedding material is irradiated corn-cob bedding (Bed-O-Cob, The Andersons, Maumee, Ohio, USA) that was changed weekly. The rats were acclimated for two weeks prior to the commencement of the experimental procedures. The room in which the rats were housed throughout the study was supplied with HEPA filtered air at the rate of 10-15 air changes per hour. The temperature was maintained at 18-26° C. with a relative humidity of 30-70%. Illumination is approximately 300 lumens/m^2 at 1 m above floor level on a 12-hour light/dark cycle. […]
# On days 1 and 3 post-surgery, the rats underwent Von Frey testing for mechanical allodynia. Tactile sensitivity (i.e. mechanical allodynia) was measured using calibrated filaments touched to the plantar surface of the affected limb. […]
# FIG. 1. Data were analyzed using a one-way ANOVA followed by Newman-Keuls' Multiple Comparison. […]
# [5] = system: post-operative pain in rats; assay: Hind paw withdrawal threshold (von Frey filaments) after surgery, second study; assay type: in vivo, rat
# Experimental: In a second independent study the rat hind paw withdrawal sensitivity was again evaluated after 3 h and 3 day post-surgery when the rats had received SEQ ID NO: 1 at three different concentrations: 1, 15 and 50 mg/kg. The dosing route was subdermal injection adjacent to the wound site. The rats received one dose 3 hours after the surgery and on Day 3 post-surgery, group 3 was dosed again as described in the Table IV. Pain measurements were taken 15-20 min after application of the drug. Baseline pain behavior was measured as follows: Withdrawal responses to mechanical stimulation were determined using von Frey filaments applied from underneath the cage through openings (12×12 mm in the plastic mesh floor to an area adjacent to the intended incision. Each von Frey filament (Target force of 0.008 g to 300 g) was applied once starting with 0.008 g filament and continuing until a withdrawal response occurred or 300 g force was reached. The median force producing a response, determined from three tests given over a 10-min period was considered the withdrawal threshold.
# In the saline treated animals, the control, 3-hour post-surgery were 25.1, 4.4 and 12.7 g, indicating significant hyperalgesic response immediately after surgery which subsided by Day-3. […] The withdrawal response in the 50 mg/kg SEQ ID NO: 1 administered on Day-1 was 9.9 g compared to the 4.4 g for the saline group at the same time-point, indicating a 125% effect. The data expressed as mean±SE, were analyzed using ANOVA followed by Tukey-HSD Multiple Comparison Test. Statistical significance was p<0.05.
# On Day-3, when these animals were administered with […] of SEQ ID NO: 1 subdermally, the withdrawal response was at 21.3 g, compared to the withdrawal response of saline group at 12.7 g, constituting an increase of 68%. The data expressed as mean±SE, were analyzed using ANOVA followed by Tukey-HSD Multiple Comparison Test. Statistical significance was p<0.05.
# [6] = system: Pseudomonas syringae pv tomato, DC3000; assay: Systemic resistance of plants to a virulent bacterial pathogen; assay type: in vivo, Arabidopsis ecotype Columbia (Col-0); settings: 20 μl salicylic acid at 1 mM and 20 μl SEQ ID NO: 15 applied together to the leaves
# Experimental: Seeds of Arabidopsis ecotype Columbia (Col-0) were planted in potting soil. Plants were cultivated in a growth chamber with 10-h d (200 μmol m^−2 s^−1 at 22° C.) and 14-h night (18° C.) cycles and 80% RH. Once a week plants were supplied with water and modified one-half strength Hoagland nutrient solution: 2 mM KNO 5 mM Ca(NO3)2 and trace elements, pH 7.
# A virulent plant pathogen, Pst Pseudomonas syringae pv tomato, DC3000 was grown at 28° C. on King's medium B containing 40 mg/L tetracycline. Plants were inoculated with 1×10^7 cfu/ml of the pathogen in 0.01% Silwet L77 (v/v) (a surfactant) and distilled water 5 weeks after sowing. The bacterial suspension or a control solution (0.01% Silwet L77 in water) was then sprayed on the plant once.
# Disease symptoms in Arabidopsis are water-soaked, spreading lesions, sometimes surrounded by chlorotic margin that eventually lead to yield loss and plant death.
# To test the efficacy of SEQ ID NO: 15, some healthy and some disease plants were sprayed with salicylic acid in 0.01%. Silwet L77; some healthy and some disease plants were sprayed with SEQ ID NO: 15 in 0.01%. Silwet L77, and some healthy and some disease plants were sprayed with salicylic acid in combination with SEQ ID NO: 15 in 0.01%. Silwet L77. A control group of some healthy and some disease plants were sprayed with water in 0.01%. Silwet L77. […]
# [7] = system: Sauromatum guttatum appendix; assay: Modulation of heat generated by 2,6-dihydroxybenzoic acid (2,6-DHBA) in appendix sections; peptide alone in a second experiment
# Experimental: as §1
# FIG. 6 illustrates modulation of heat generated by 2,6-dihydroxybenzoic acid in the presence of the Alzheimer's peptide, A.β.1-42, SEQ ID NO: 49 and a plant gene derived sequence in the Sauromatum guttatum appendix. One day before heat-production, sections of the appendix were placed in different solutions containing 2,6-dihydroxybenzoic acid (2,6-DHBA) with or without SEQ ID NO: 2 (FLPSEFGVDVDR) and SEQ ID NO: 49. Heat-production was monitored with thermocouples attached to the sections. A section placed in distilled water that was not generated any heat is the control (water). […] The temperature was recorded every 5 min.
compound,measurement,setting,value
AGEGLNSQFWSLAAPQRF [SEQ ID NO: 44],modulation of heat generated by salicylic acid (SA) (FIG. 5),[1],modulate thermogenicity in plants
same,modulation of heat generated by aspirin (ASA) (FIG. 4),[2],can modulate thermogenicity in plants
FLPS (Description of Unknown: Arabidopsis thaliana or Homo sapiens) [SEQ ID NO: 1],scaled pain score after the treatment,"chronic pain; scale 1 (no pain) to 10 (severe pain), prior to treatment 8-9",2-3
same,duration of treatment efficacy,"chronic pain; topical, single dose",about 10 days
same,duration of relief,"chronic pain; topical, single dose of about 5 μg/10 cm2",more than a week
same,time until relief was noticed,"chronic pain; topical, single dose of about 5 μg/10 cm2, 5 μM in 0.01% Silwet L-77",≤ 15 min
same,flowering,[3],induces early flowering and abundance of flowers and pods
same,"pain (mechanical allodynia, paw withdrawal threshold, FIG. 1)","[4]; rats 3 days after surgery, 150 μg topical or subdermal, p<0.05",significantly reduce pain
same,appearance of the rats,"[4]; rats after surgery, treated",relaxed and with less anxiety
same,increase in the pain threshold,"[5]; 1 mg/kg on day 1, 3-hour post surgery measurements",39%
same,effect compared to the saline group at the same time-point,"[5]; 50 mg/kg subdermal, Day-1, 3 h after surgery",125%
same,withdrawal response,"[5]; 50 mg/kg subdermal, Day-1, 3 h after surgery, saline group 4.4 g",9.9 g
same,increase in response time compared to the saline group,"[5]; Day 3, group which did not receive any further dosing",31%
same,increase of withdrawal response compared to saline group,"[5]; Day-3, 15.25 mg/kg subdermally",68%
same,withdrawal response,"[5]; Day-3, 15.25 mg/kg subdermally (animals given 1 mg/kg on day 1), saline group 12.7 g",21.3 g
YGGFL [SEQ ID NO: 15],modulation of heat generated by aspirin (ASA) (FIG. 4),[2],can modulate thermogenicity in plants
same,systemic resistance to the virulent bacteria,[6],enough to trigger systemic resistance
YPFVEPIP [SEQ ID NO: 47],modulation of heat generated by aspirin (ASA) (FIG. 4),[2],can modulate thermogenicity in plants
YGGFLRRIRPKLKWDNQ [SEQ ID NO: 21],modulation of heat generated by aspirin (ASA) (FIG. 4),[2],can modulate thermogenicity in plants
O=C(O)c1ccccc1O [salicylic acid],systemic resistance to the virulent bacteria,[6],enough to trigger systemic resistance
YPFF [SEQ ID NO: 24],modulation of heat generated by aspirin (ASA) (FIG. 4),[2],can modulate thermogenicity in plants
FLPSEFGVDVDR [SEQ ID NO: 2],"modulation of heat generated by 2,6-dihydroxybenzoic acid (FIG. 6)","[7]; appendix sections in 2,6-DHBA with or without peptide",modulate thermogenicity in plants
same,heat generation by the peptide,"[7]; second experiment, up to 50 μM, data not shown",did not generate heat
YGGFMTSEKSQTPLVTLFKNAIIKNAYKKGE [SEQ ID NO: 19],modulation of heat generated by salicylic acid (SA) (FIG. 5),[1],modulate thermogenicity in plants
same,modulation of heat generated by aspirin (ASA) (FIG. 4),[2],can modulate thermogenicity in plants
